# Measurements: patent publication US20230116972A1, “CD38 MODULATORS AND METHODS OF USE THEREOF” (Cytokinetics, Inc., priority 2021, published 2023)
# Legend:
# [1] = target: T1, human CD38 (Homo sapiens, UniProt P28907); assay: human recombinant CD38 enzyme assay (hydrolysis of NAD+); assay type: biochemical; conditions: human recombinant CD38, 0.4 nM enzyme, 62.5 μM NAD+; read-out: hCD38 BioChem IC50
# T1 sequence (P28907 1-300): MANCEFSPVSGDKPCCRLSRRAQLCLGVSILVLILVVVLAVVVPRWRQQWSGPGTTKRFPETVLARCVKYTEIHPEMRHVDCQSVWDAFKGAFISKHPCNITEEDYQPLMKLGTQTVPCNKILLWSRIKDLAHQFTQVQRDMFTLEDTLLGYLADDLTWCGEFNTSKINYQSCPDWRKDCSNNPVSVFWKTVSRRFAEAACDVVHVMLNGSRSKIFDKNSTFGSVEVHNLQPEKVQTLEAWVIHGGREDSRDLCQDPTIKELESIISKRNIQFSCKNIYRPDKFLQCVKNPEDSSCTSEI
# Procedure, shortened: (§1)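 Cell-free recombinant enzyme, NAD+ substrate, 60 min at RT. Stop/detect: ethanol/ADH plus semicarbazide and a CD38 inhibitor (15 min), then NaOH, then resazurin/diaphorase (15 min). Remaining NAD+ read as resorufin fluorescence, Ex/Em 540/590 nm. Inhibition fitted from dose responses.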
# [2] = target: T2, mouse CD38 (Mus musculus, UniProt P56528); assay: mouse recombinant CD38 enzyme assay (hydrolysis of NAD+); assay type: biochemical; conditions: read-out: mCD38 BioChem IC50
# T2 sequence (P56528 1-304): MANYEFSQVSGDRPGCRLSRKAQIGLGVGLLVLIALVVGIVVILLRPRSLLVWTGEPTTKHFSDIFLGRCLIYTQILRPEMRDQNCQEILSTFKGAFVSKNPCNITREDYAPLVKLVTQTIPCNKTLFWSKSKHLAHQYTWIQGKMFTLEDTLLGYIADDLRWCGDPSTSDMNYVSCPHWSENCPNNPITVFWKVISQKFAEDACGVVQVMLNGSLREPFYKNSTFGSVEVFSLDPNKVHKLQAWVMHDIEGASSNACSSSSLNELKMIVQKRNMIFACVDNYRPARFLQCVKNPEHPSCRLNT
# Procedure, shortened: as §1
# [3] = target: T3, endogenous CD38 in HL60 cells (Homo sapiens, UniProt P28907); assay: cellular CD38 assay in HL60 cells (cellular NAD levels); assay type: cell-based; conditions: all-trans retinoic acid, 24 hours, read-out: hCD38 HL60 ATRA NAD Cell Diaphorase IC50
# T3 construct: endogenous in cells; host or cells: HL60 (leukemic cells, treated with all-trans retinoic acid)
# T3 sequence (P28907 1-300): T1 sequence (P28907 1-300)
# Experimental: The compounds described herein were also assayed for their ability to inhibit the endogenous CD38 in a native cellular environment in the cellular CD38 assay, which measures the ability of the compound to modulate cellular NAD levels. […] The assays were initiated by plating 20 μL of HL60 cells in culture medium, at a density of 20000 cells per well to a 384-well Corning™ Multiwell Plates. Compounds in DMSO were added to the plates in a volume of 120 nL using the Labcyte Echo Liquid Handlers. […] The plates are then incubated for 24 hours. 50 μL of a readout-solution containing 0.2 U/mL Diaphorase enzyme, 40 uM resazurin, 10 uM FMN, 0.8 U/mL Alcohol dehydrogenase, 3% ethanol, 0.4 mg/mL bovine serum albumin, 0.2% Triton X-100 in 100 mM Tris-HCl, 30 mM EDTA, pH 8.4. The plates were read for fluorescence (Excitation/Emission=540 nm/590 nm) using an EnVision plate reader after 60 mins of incubation at ambient temperature. Note that, in Table 5, the “Compound No” corresponds to the compound numbers in Table 1.
Compound,IC50 [1],IC50 [2],IC50 [3]
"O=C(Nc1cccnc1)c1cc(-n2ccnc2)ccn1 [Compound 1, 4-(1H-imidazol-1-yl)-N-(pyridin-3-yl)picolinamide]",0.243 µM,0.358 µM,2 µM
"Cc1ccc(NC(=O)c2cc(-n3ccnc3)ccn2)cn1 [Compound 2, 4-(1H-imidazol-1-yl)-N-(6-methylpyridin-3-yl)picolinamide]",0.345 µM,1.01 µM,3.06 µM
"O=C(Nc1cncc(F)c1)c1cc(-n2ccnc2)ccn1 [Compound 3, N-(5-fluoropyridin-3-yl)-4-(1H-imidazol-1-yl)picolinamide]",1.09 µM,0.234 µM,6.78 µM
"O=C(Nc1ccccn1)c1cc(-n2ccnc2)ccn1 [Compound 4, 4-(1H-imidazol-1-yl)-N-(pyridin-2-yl)picolinamide]",1.13 µM,0.491 µM,8.51 µM
"O=C(Nc1ccccc1)c1cc(-n2ccnc2)ccn1 [Compound 5, 4-(1H-imidazol-1-yl)-N-phenylpicolinamide]",0.313 µM,0.42 µM,7.82 µM
"O=C(Nc1ccc(C(F)(F)F)nc1)c1cc(-n2ccnc2)ccn1 [Compound 6, 4-(1H-imidazol-1-yl)-N-(6-(trifluoromethyl)pyridin-3-yl)picolinamide]",0.352 µM,1.58 µM,8.69 µM
"O=C(Nc1ccncc1)c1cc(-n2ccnc2)ccn1 [Compound 7, 4-(1H-imidazol-1-yl)-N-(pyridin-4-yl)picolinamide]",0.549 µM,0.223 µM,4.46 µM
"O=C(Nc1cccnc1)c1cccc(-n2ccnc2)c1 [Compound 9, 3-(1H-imidazol-1-yl)-N-(pyridin-3-yl)benzamide]",1.24 µM,0.432 µM,5.98 µM
"O=C(Nc1cccnc1)c1ccnc(-n2ccnc2)c1 [Compound 10, 2-(1H-imidazol-1-yl)-N-(pyridin-3-yl)isonicotinamide]",1.19 µM,0.433 µM,4.35 µM
"O=C(Nc1cccnc1)c1cccc(-c2cncs2)n1 [Compound 11, N-(pyridin-3-yl)-6-(thiazol-5-yl)picolinamide]",2.11 µM,0.741 µM,8.05 µM
"O=C(NC1CCOCC1)c1cccc(-n2ccnc2)n1 [Compound 12, 6-(1H-imidazol-1-yl)-N-(tetrahydro-2H-pyran-4-yl)picolinamide]",0.296 µM,0.122 µM,3.99 µM
"O=C(Nc1ccc(C(F)(F)F)nc1)c1cccc(-n2ccnc2)n1 [Compound 13, 6-(1H-imidazol-1-yl)-N-(6-(trifluoromethyl)pyridin-3-yl)picolinamide]",0.006 µM,0.008 µM,0.568 µM
"COCCO[C@H]1CC[C@H](NC(=O)c2cccc(-n3ccnc3)n2)CC1 [Compound 14, 6-(1H-imidazol-1-yl)-N-(4-(2-methoxyethoxy)cyclohexyl)picolinamide]",0.091 µM,0.017 µM,3.29 µM
"O=C(NC12CC(O)(C1)C2)c1cccc(-n2ccnc2)n1 [Compound 15, N-(3-hydroxybicyclo[1.1.1]pentan-1-yl)-6-(1H-imidazol-1-yl)picolinamide]",1.14 µM,0.748 µM,9.96 µM
"O=C(NC12CC(C1)C2)c1cccc(-n2ccnc2)n1 [Compound 16, N-(bicyclo[1.1.1]pentan-1-yl)-6-(1H-imidazol-1-yl)picolinamide]",1.51 µM,0.76 µM,7.39 µM
"O=C(Nc1ccccc1F)c1cccc(-n2ccnc2)n1 [Compound 17, N-(2-fluorophenyl)-6-(1H-imidazol-1-yl)picolinamide]",0.067 µM,0.027 µM,1.4 µM

Compound,IC50 [1],IC50 [2],IC50 [3]
"O=C(Nc1cccc(F)c1)c1cccc(-n2ccnc2)n1 [Compound 18, N-(3-fluorophenyl)-6-(1H-imidazol-1-yl)picolinamide]",0.006 µM,0.006 µM,0.415 µM
"O=C(Nc1ccc(F)cc1)c1cccc(-n2ccnc2)n1 [Compound 19, N-(4-fluorophenyl)-6-(1H-imidazol-1-yl)picolinamide]",0.007 µM,0.009 µM,0.345 µM
"Cc1ccc(NC(=O)c2cccc(-n3ccnc3)n2)cn1 [Compound 20, 6-(1H-imidazol-1-yl)-N-(6-methylpyridin-3-yl)picolinamide]",0.009 µM,0.008 µM,0.365 µM
"Cc1cc(NC(=O)c2cccc(-n3ccnc3)n2)ccn1 [Compound 21, 6-(1H-imidazol-1-yl)-N-(2-methylpyridin-4-yl)picolinamide]",0.003 µM,0.003 µM,0.273 µM
"Cc1ccc(C(=O)Nc2cccnc2)nc1-n1ccnc1 [Compound 22, 6-(1H-imidazol-1-yl)-5-methyl-N-(pyridin-3-yl)picolinamide]",0.496 µM,0.07 µM,0.802 µM
"CO[C@H]1C[C@H](NC(=O)c2cccc(-n3ccnc3)n2)C1 [Compound 23, 6-(1H-imidazol-1-yl)-N-(3-methoxycyclobutyl)picolinamide]",0.614 µM,0.11 µM,3.89 µM
"Cn1cncc1-c1nc(C(=O)Nc2ccc(C(F)F)nc2)cc(C2CC3(COC3)C2)n1 [Compound 348, N-(6-(difluoromethyl)pyridin-3-yl)-2-(1-methyl-1H-imidazol-5-yl)-6-(2-oxaspiro[3.3]heptan-6-yl)pyrimidine-4-carboxamide]",0.0025 µM,0.001 µM,–
"O=C(N[C@H]1CC[C@H](O)CC1)c1nc(C(F)F)cc(-n2ccnc2)n1 [Compound 349, 4-(difluoromethyl)-N-((1r,4r)-4-hydroxycyclohexyl)-6-(1H-imidazol-1-yl)pyrimidine-2-carboxamide]",0.128 µM,0.0282 µM,–
"CO[C@H]1CC[C@H](NC(=O)c2nc(-c3cncn3C)cc(C(F)F)n2)CC1 [Compound 350, 4-(difluoromethyl)-N-((1r,4r)-4-methoxycyclohexyl)-6-(1-methyl-1H-imidazol-5-yl)pyrimidine-2-carboxamide]",0.107 µM,0.0113 µM,–
"COCCO[C@@H]1CC[C@@H](NC(=O)c2nccc(-c3cncn3C)n2)C1 [Compound 351, N-((1R,3R)-3-(2-methoxyethoxy)cyclopentyl)-4-(1-methyl-1H-imidazol-5-yl)pyrimidine-2-carboxamide]",0.676 µM,0.267 µM,–
"COCCO[C@@H]1CC[C@@H](NC(=O)c2cc(C3CCOCC3)nc(-c3cncn3C)n2)C1 [Compound 352, N-((1R,3R)-3-(2-methoxyethoxy)cyclopentyl)-2-(1-methyl-1H-imidazol-5-yl)-6-(tetrahydro-2H-pyran-4-yl)pyrimidine-4-carboxamide]",0.0254 µM,0.0206 µM,–
"COCCO[C@H]1CC[C@H](NC(=O)c2cc(C3CCOCC3)nc(-c3cncn3C)n2)C1 [Compound 353, N-((1S,3S)-3-(2-methoxyethoxy)cyclopentyl)-2-(1-methyl-1H-imidazol-5-yl)-6-(tetrahydro-2H-pyran-4-yl)pyrimidine-4-carboxamide]",0.0208 µM,0.0042 µM,–
"O=C(Nc1ccc(OC(F)F)nc1)c1nccc(-n2ccnc2)n1 [Compound 354, N-(6-(difluoromethoxy)pyridin-3-yl)-4-(1H-imidazol-1-yl)pyrimidine-2-carboxamide]",0.0042 µM,0.0169 µM,–
"COc1ccc(NC(=O)c2cc(C3CCOCC3)nc(-c3cncn3C)n2)cn1 [Compound 355, N-(6-methoxypyridin-3-yl)-2-(1-methyl-1H-imidazol-5-yl)-6-(tetrahydro-2H-pyran-4-yl)pyrimidine-4-carboxamide]",0.0035 µM,0.0011 µM,–
"COc1ccc(NC(=O)c2nccc(-c3cncn3C)n2)cn1 [Compound 356, N-(6-methoxypyridin-3-yl)-4-(1-methyl-1H-imidazol-5-yl)pyrimidine-2-carboxamide]",0.0043 µM,0.01 µM,–
